Drawing on patent publication US20230059136A1, “THE COMPOUNDS AND COMPOSITIONS FOR TREATING CONDITIONS ASSOCIATED WITH NLRP ACTIVITY” (Novartis AG, priority 2018, published 2023), this text covers IC50 for 26 compounds.

In the first experiment the test system is IL-1β production in PMA-differentiated THP-1 cells. Description: IL-1β production in PMA-differentiated THP-1 cells stimulated with gramicidin (hTHP-1 assay containing 2% fetal bovine serum). Particulars: Homo sapiens, THP-1, Table B1; 2% fetal bovine serum; cells printed as numeric bound; read-out: hTHP-1 IC50 (Average IC50 of compounds in hTHP-1 assay). In kind it is cell-based, human. Put shortly:
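IL-1β release was read by HTRF on supernatants of 50,000 PMA-primed (20 ng/ml, 16-18 h) THP-1 cells/well in 2% FBS medium. Cells saw compound for 1 h (11-point titration from 100 μM, 0.37% DMSO) before a 2 h gramicidin (5 μM) challenge.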
The IC50 is the concentration that inhibits the measured activity by half. As for `CC(C)(O)c1ncc([S@](N)(=O)=NC(=O)Cc2cc3c(c4c2CCC4)CCC3)s1` [Compound 259b], the IC50 was over 30000 nM.
Regarding `CC(C)c1ncnc(C(C)C)c1CC(=O)N=S(N)(=O)c1cnc(C(C)(C)O)s1` (centres unmarked) [Compound 260], the half-inhibitory concentration (IC50) was over 30000 nM.
As for `CC(C)c1cc2c(cnn2C)c(C(C)C)c1CC(=O)N=S(N)(=O)c1ncc(C(C)(C)O)s1` (centres unmarked) [Compound 1341], the IC50 is over 30000 nM.

Staying with this experiment, now noted: Homo sapiens, THP-1, Table B1; 2% fetal bovine serum; class symbols; read-out: hTHP-1 IC50 (Average IC50 of compounds in hTHP-1 assay).
Take `CC(C)c1cc2c(c(C(C)C)c1CC(=O)N=S(=O)(NC#N)c1cc(C(C)(C)O)cs1)COC2` (stereo in doubt) [Example 343, (S)-N-(cyanamido(4-(2-hydroxypropan-2-yl)thiophen-2-yl)(oxo)-λ^6-sulfaneylidene)-2-(4,6-diisopropyl-1,3-dihydroisobenzofuran-5-yl)acetamide]: the IC50 was in the range of 5000 to 30000 nM.
Consider `CC(C)c1cc2c(c(C(C)C)c1CC(=O)N=S(=O)(NC#N)c1cc(C(C)(C)O)cs1)COC2` (stereo in doubt) [Example 344, (R)-N-(cyanamido(4-(2-hydroxypropan-2-yl)thiophen-2-yl)(oxo)-λ^6-sulfaneylidene)-2-(4,6-diisopropyl-1,3-dihydroisobenzofuran-5-yl)acetamide], for which the IC50 lay within 200 to 1000 nM.
For the compound `CC(C)c1cc(F)cc(C(C)C)c1CC(=O)N=S(N)(=O)c1ccc(C(C)(C)O)cc1` (centres unmarked) [Example 1, 2-(4-Fluoro-2,6-diisopropylphenyl)-N-(4-(2-hydroxypropan-2-yl)phenylsulfonimidoyl)acetamide], the IC50 lay in the range of 1000 to 5000 nM.
The same measure, in the same setting: as for `CC(C)c1cc(F)cc(C(C)C)c1CC(=O)N=S(N)(=O)c1ncc(C(C)(C)O)s1` (centres unmarked) [Example 7, 2-(4-Fluoro-2,6-diisopropylphenyl)-N-(5-(2-hydroxypropan-2-yl)thiazole-2-sulfonimidoyl)acetamide], the figure is 200 to 1000 nM; as for `CC(C)c1cc(F)cc(C(C)C)c1CC(=O)NS(=N)(=O)c1ncc(C(C)(C)O)s1` [Example 8, (S)- and (R)-2-(4-fluoro-2,6-diisopropylphenyl)-N-(5-(2-hydroxypropan-2-yl)thiazole-2-sulfonimidoyl)acetamide], 1000 to 5000 nM.
Regarding `CC(C)c1cc(C#N)cc(C(C)C)c1CC(=O)N=S(N)(=O)c1sc(C(C)(C)O)nc1CO` (centres unmarked) [Example 22, N-(amino(4-(hydroxymethyl)-2-(2-hydroxypropan-2-yl)thiazol-5-yl)(oxo)-λ^6-sulfaneylidene)-2-(4-cyano-2,6-diisopropylphenyl)acetamide], the half-maximal inhibitory concentration (IC50) is 200 to 1000 nM.

The same experiment, now with this note: Homo sapiens, THP-1, Table B2; 2% fetal bovine serum; cells printed as numeric bound; read-out: hTHP-1 IC50 (Average IC50 of compounds in hTHP-1 assay).
In the case of `CC(C)c1nc(C(F)(F)F)nc(C(C)C)c1CC(=O)N=S(N)(=O)c1cnc(C(C)(C)O)s1` (single isomer, unassigned) [Example 397, (R) or (S)-N-(amino(2-(2-hydroxypropan-2-yl)thiazol-5-yl)(oxo)-λ^6-sulfaneylidene)-2-(4,6-diisopropyl-2-(trifluoromethyl)pyrimidin-5-yl)acetamide], the 50% inhibitory concentration (IC50) is over 30000 nM.
Take `CCn1cc(F)c(S(N)(=O)=NC(=O)Cc2c(C(C)C)cc3c(c2C(C)C)COC3)n1` (single isomer, unassigned) [Example 399, (S) or (R)-N-(amino(1-ethyl-4-fluoro-1H-pyrazol-3-yl)(oxo)-λ^6-sulfaneylidene)-2-(4,6-diisopropyl-1,3-dihydroisobenzofuran-5-yl)acetamide]: the IC50 is over 30000 nM.

Staying with this experiment, now noted: Homo sapiens, THP-1, Table B2; 2% fetal bovine serum; class symbols; read-out: hTHP-1 IC50 (Average IC50 of compounds in hTHP-1 assay).
As for `CC(C)c1nc(C(F)(F)F)nc(C(C)C)c1CC(=O)N=S(N)(=O)c1cnc(C(C)(C)O)s1` (single isomer, unassigned) [Example 396, (S) or (R)-N-(amino(2-(2-hydroxypropan-2-yl)thiazol-5-yl)(oxo)-λ^6-sulfaneylidene)-2-(4,6-diisopropyl-2-(trifluoromethyl)pyrimidin-5-yl)acetamide], the concentration for half-maximal inhibition (IC50) was 1000 to 5000 nM.
In the case of `CCn1cc(F)c(S(N)(=O)=NC(=O)Cc2c(C(C)C)cc3c(c2C(C)C)COC3)n1` (single isomer, unassigned) [Example 398, (R) or (S)-N-(amino(1-ethyl-4-fluoro-1H-pyrazol-3-yl)(oxo)-λ^6-sulfaneylidene)-2-(4,6-diisopropyl-1,3-dihydroisobenzofuran-5-yl)acetamide], the IC50 lay in the range of 200 to 1000 nM.
Consider `COc1cc(-c2cccc(C(C)C)c2CC(=O)N=S(=O)(NC#N)c2cnc(C(C)(O)CO)s2)ccn1` (stereo in doubt) [Example 367, N-(cyanamido(2-((S)-1,2-dihydroxypropan-2-yl)thiazol-5-yl)(oxo)-λ^6-sulfaneylidene)-2-(2-isopropyl-6-(2-methoxypyridin-4-yl)phenyl)acetamide], for which the IC50 lay within 1000 to 5000 nM.

The experiment is the same for the next values; noted with them: Table B1; 2% fetal bovine serum; class symbols; read-out: hTHP-1 IC50 (Average IC50 of compounds in hTHP-1 assay).
Consider `CC(C)c1cc(F)cc(C(C)C)c1CC(=O)N=S(N)(=O)c1sc(C(C)(C)O)cc1F` (centres unmarked) [Example 17, 2-(4-fluoro-2,6-diisopropylphenyl)-N-(3-fluoro-5-(2-hydroxypropan-2-yl)thiophen-2-ylsulfonimidoyl)acetamide], for which the half-inhibitory concentration (IC50) was in the range of 8 to 40 nM.
Still for that read-out and setting: the value for `CC(C)c1c(F)c(C#N)cc(C2CC2)c1CC(=O)N=S(N)(=O)c1sc(C(C)(C)O)cc1F` (centres unmarked) [Example 19, 2-(4-cyano-6-cyclopropyl-3-fluoro-2-isopropylphenyl)-N-(3-fluoro-5-(2-hydroxypropan-2-yl)thiophen-2-ylsulfonimidoyl)acetamide] was 8 to 40 nM.
As for `CC(C)c1cc(Cl)c(F)c(C2CC2)c1CC(=O)N=S(N)(=O)c1sc(C(C)(C)O)cc1F` (centres unmarked) [Example 20, 2-(4-chloro-2-cyclopropyl-3-fluoro-6-isopropylphenyl)-N-(3-fluoro-5-(2-hydroxypropan-2-yl)thiophen-2-ylsulfonimidoyl)acetamide], the half-inhibitory concentration (IC50) lay in the range of 200 to 1000 nM.
As for `CC(C)c1cc(OC(F)F)cc(C(C)C)c1CC(=O)N=S(N)(=O)c1sc(C(C)(C)O)cc1F` (centres unmarked) [Example 21, 2-(4-(difluoromethoxy)-2,6-diisopropylphenyl)-N-(3-fluoro-5-(2-hydroxypropan-2-yl)thiophen-2-ylsulfonimidoyl)acctamide], the IC50 was 40 to 200 nM.

The same experiment, now with this note: Table B2; 2% fetal bovine serum; class symbols; read-out: hTHP-1 IC50 (Average IC50 of compounds in hTHP-1 assay).
As for `CC(C)c1cc(C#N)cc(C(C)C)c1CC(=O)N=S(N)(=O)c1sc(C(C)(C)O)nc1CCO` (single isomer, unassigned) [Example 383, (R) or (S)-N-(amino(4-(2-hydroxyethyl)-2-(2-hydroxypropan-2-yl)thiazol-5-yl)(oxo)-λ^6-sulfaneylidene)-2-(4-cyano-2,6-diisopropylphenyl)acetamide], the half-maximal inhibitory concentration (IC50) lay in the range of 200 to 1000 nM.
Take `CC(C)c1cc(C#N)cc(C(C)C)c1CC(=O)N=S(N)(=O)c1sc(C(C)(C)O)nc1CCO` (single isomer, unassigned) [Example 384, (S) or (R)-N-(amino(4-(2-hydroxyethyl)-2-(2-hydroxypropan-2-yl)thiazol-5-yl)(oxo)-λ^6-sulfaneylidene)-2-(4-cyano-2,6-diisopropylphenyl)acetamide]: the IC50 fell in the range of 5000 to 30000 nM.
`CC(C)c1cc(C#N)cc(C(C)C)c1CC(=O)N=S(N)(=O)c1nc(CO)c(C(C)(C)O)s1` (single isomer, unassigned) [Example 385, (R) or (S)-N-(amino(4-(hydroxymethyl)-5-(2-hydroxypropan-2-yl)thiazol-2-yl)(oxo)-λ^6-sulfaneylidene)-2-(4-cyano-2,6-diisopropylphenyl)acetamide]: the IC50 was in the range of 200 to 1000 nM.
`CC(C)c1cc(C#N)cc(C(C)C)c1CC(=O)N=S(N)(=O)c1nc(CO)c(C(C)(C)O)s1` (single isomer, unassigned) [Example 386, (S) or (R)-N-(amino(4-(hydroxymethyl)-5-(2-hydroxypropan-2-yl)thiazol-2-yl)(oxo)-λ^6-sulfaneylidene)-2-(4-cyano-2,6-diisopropylphenyl)acetamide]: the half-inhibitory concentration (IC50) lay within 5000 to 30000 nM.
Same read-out and setting: the value for `CCn1cc(F)c(S(N)(=O)=NC(=O)Cc2c(C(C)C)cc3c(c2C(C)C)OC(F)(F)O3)n1` (single isomer, unassigned) [Example 400, (R) or (S)-N-(amino(1-ethyl-4-fluoro-1H-pyrazol-3-yl)(oxo)-λ^6-sulfaneylidene)-2-(2,2-difluoro-4,6-diisopropylbenzo[d][1,3]dioxol-5-yl)acetamide] was 200 to 1000 nM; that for `CCn1cc(F)c(S(N)(=O)=NC(=O)Cc2c(C(C)C)cc3c(c2C(C)C)OC(F)(F)O3)n1` (single isomer, unassigned) [Example 401, (S) or (R)-N-(amino(1-ethyl-4-fluoro-1H-pyrazol-3-yl)(oxo)-λ^6-sulfaneylidene)-2-(2,2-difluoro-4,6-diisopropylbenzo[d][1,3]dioxol-5-yl)acetamide] was 5000 to 30000 nM; that for `CC(C)c1cc(C#N)c(F)c(C(C)C)c1CC(=O)N=S(N)(=O)c1cnc(C(O)(CO)CO)s1` (single isomer, unassigned) [Example 402, (R) or (S)-N-(amino(oxo) (2-(1,2,3-trihydroxypropan-2-yl)thiazol-5-yl)-λ^6-sulfaneylidene)-2-(4-cyano-3-fluoro-2,6-diisopropylphenyl)acetamide] was 200 to 1000 nM.
Turning to `CC(C)c1cc(C#N)c(F)c(C(C)C)c1CC(=O)N=S(N)(=O)c1cnc(C(O)(CO)CO)s1` (single isomer, unassigned) [Example 403, (S) or (R)-N-(amino(oxo) (2-(1,2,3-trihydroxypropan-2-yl)thiazol-5-yl)-λ^6-sulfaneylidene)-2-(4-cyano-3-fluoro-2,6-diisopropylphenyl)acetamide], the IC50 was in the range of 5000 to 30000 nM.
